From patent publication US8476253B2, “Amide derivative” (Daiichi Sankyo Company, Limited, priority 2009, dated 2013) come the findings set out here.

Parameters in all cases: species or system guinea pig
The subject of one assay is muscarine M3 receptor. Nature of the assay: Effect of suppressing methacholine-induced airway contraction (in vivo, intratracheal administration). Particulars: guinea pigs, intratracheal administration 60 minutes before 30 μg/kg i.v. methacholine; AUC of increase in airway pressure over 10 minutes. How it is done:
Using healthy guinea pigs (body weight, 350 to 550 g; Hartley male guinea pigs), the effect of suppressing airway contraction induced by methacholine, which is a muscarine receptor agonist, was examined by a modified method of Konzett-Roessler (Naunyn-Schmiedebergs Arch. Exp. Pathol. Pharmakol. 195, 71 [1940]) using airway pressure as an indicator.
(§1) A tracheal cannula and a venous cannula were attached to a guinea pig anesthetized with pentobarbital (50 mg/mL of solution, 0.40 to 0.50 mL/body, subcutaneous administration). An arterial cannula filled with heparin-containing physiological saline (100 U/mL) was further attached, and blood pressure and heart rate were monitored via an amplifier and an instantaneous heart rate meter. Subsequently, gallamine (20 mg/body, intravenous administration) was administered to terminate spontaneous breathing, and then 10 mL/kg of positive pressure breathing (Ugo-Basile Biological Research Apparatus, Cat. No. 7025) was rapidly performed at 60 times/min. The airway pressure during artificial breathing was detected with a pressure transducer (TP-200T or TP-400T; Nihon Kohden Corporation) attached to a side branch of the tracheal cannula, amplified (AP-601G; Nihon Kohden Corporation), and recorded in a recorder. After the airway pressure, blood pressure, and heart rate were stabilized, 30 μg/kg of methacholine was intravenously administered from the venous cannula to induce airway contraction, and the airway pressure was measured for the following 10 minutes.
A test substance was dissolved in 5% glucose solution, and a 0.5 mL/kg solution was administered intratracheally with an intratracheal administration apparatus (model 1A-1B; Penn-Century, Inc.) 60 minutes before stimulation with methacholine.
The AUC of increase in the airway pressure over 10 minutes after administration of methacholine was measured as the intensity of methacholine-induced airway contraction and calculated as an ID50 value from the inhibition rate based on the value of the control group (a 5% glucose solution intratracheal administration group).

For another assay, the target named is T1, neurokinin NK1 receptor (Cavia porcellus, UniProt P30547).
T1 construct: Using healthy guinea pigs (body weight, 350 to 550 g; Hartley male guinea pigs); from tissue; host or cells: live anaesthetised Hartley male guinea pigs (airway, in vivo)
Nature of the assay: Effect of suppressing substance P-induced airway contraction (in vivo, intratracheal administration). As to conditions: guinea pigs, intratracheal administration 60 minutes before 20 μg/kg i.v. SP; AUC of increase in airway pressure over 10 minutes. How it is done:
Using healthy guinea pigs (body weight, 350 to 550 g; Hartley male guinea pigs), the effect of suppressing airway contraction induced by substance P (SP), which is an NK1 receptor agonist, was examined by a modified method of Konzett-Roessler (Naunyn-Schmiedebergs Arch. Exp. Pathol. Pharmakol. 195, 71 [1940]) using airway pressure as an indicator.
as §1, with “mg/mL” for “mg/mL of”, “20” for “30”, “SP” for “methacholine”
The test substance was dissolved in a 5% glucose solution, a 0.5 mL/kg solution was intratracheally administered with an intratracheal administration apparatus (model 1A-1B; Penn-Century, Inc.) 60 minutes before stimulation with SP.
The AUC of increase in the airway pressure over 10 minutes after administration of SP was determined as the intensity of SP-induced airway contraction and calculated as an ID50 value from the inhibition rate based on the value of the control group (5% glucose solution intratracheal administration group).

A further assay has as its target T2, neurokinin NK2 receptor (Cavia porcellus, UniProt Q64077).
T2 construct: Using healthy guinea pigs (body weight, 350 to 550 g; Hartley male guinea pigs); from tissue; host or cells: live anaesthetised Hartley male guinea pigs (airway, in vivo)
T2 sequence (Q64077 1-402): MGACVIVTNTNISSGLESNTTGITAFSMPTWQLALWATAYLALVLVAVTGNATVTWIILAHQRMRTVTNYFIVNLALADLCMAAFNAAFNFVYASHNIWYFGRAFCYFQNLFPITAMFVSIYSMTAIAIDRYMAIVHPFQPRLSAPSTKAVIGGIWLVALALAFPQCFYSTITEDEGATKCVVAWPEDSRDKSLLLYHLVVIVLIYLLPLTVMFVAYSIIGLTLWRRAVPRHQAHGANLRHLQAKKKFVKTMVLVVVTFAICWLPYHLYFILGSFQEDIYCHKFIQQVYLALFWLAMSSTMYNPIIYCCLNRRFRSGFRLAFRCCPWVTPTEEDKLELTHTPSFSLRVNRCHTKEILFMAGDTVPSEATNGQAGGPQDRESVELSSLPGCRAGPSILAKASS
Nature of the assay: Effect of suppressing neurokinin A-induced airway contraction (in vivo, intratracheal administration). Particulars: guinea pigs, intratracheal administration 60 minutes before 4 μg/kg i.v. NKA; AUC of increase in airway pressure over 10 minutes. How it is done:
Using healthy guinea pigs (body weight, 350 to 550 g; Hartley male guinea pigs), the effect of suppressing airway contraction induced by neurokinin A (NKA), which is an NK2 receptor agonist, was examined by a modified method of Konzett-Roessler (Naunyn-Schmiedebergs Arch. Exp. Pathol. Pharmakol. 195, 71 [1940]) using airway pressure as an indicator.
as §1, with “mg/mL” for “mg/mL of”, “and” for “and then”, “4” for “30”, “NKA” for “methacholine”
The test substance was dissolved in a 5% glucose solution, and a 0.5 mL/kg solution was intratracheally administered with an intratracheal administration apparatus (model 1A-1B; Penn-Century, Inc.) 60 minutes before stimulation with NKA.
The AUC of increase in the airway pressure over 10 minutes after administration of NKA was determined as the intensity of NKA-induced airway contraction and calculated as an ID50 value from the inhibition rate based on the value of the control group (5% glucose solution intratracheal administration group).

T1 sequence (P30547 whole entry): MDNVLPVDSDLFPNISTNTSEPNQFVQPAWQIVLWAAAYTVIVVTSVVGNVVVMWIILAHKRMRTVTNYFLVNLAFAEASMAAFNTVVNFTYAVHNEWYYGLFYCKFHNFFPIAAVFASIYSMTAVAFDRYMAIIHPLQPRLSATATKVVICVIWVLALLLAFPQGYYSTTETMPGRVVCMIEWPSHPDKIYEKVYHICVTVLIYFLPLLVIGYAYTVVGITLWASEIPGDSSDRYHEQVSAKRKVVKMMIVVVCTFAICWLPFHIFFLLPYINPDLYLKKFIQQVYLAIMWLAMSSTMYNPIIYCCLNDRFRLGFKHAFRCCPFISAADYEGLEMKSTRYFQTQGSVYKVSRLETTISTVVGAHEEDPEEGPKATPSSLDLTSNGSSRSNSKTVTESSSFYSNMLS

As for `CN(CCN1CCC(OC(=O)Nc2ccccc2-c2ccccc2)CC1)C(=O)CCCCCCNc1ccc(C(=O)N(C)CCCN(C)C(=O)CO[C@H]2Cc3ccccc3C23CCN(CC[C@@]2(c4ccc(F)cc4)CN(C(=O)c4cc(C(F)(F)F)cc(C(F)(F)F)c4)CO2)CC3)cc1.Cl.Cl.Cl` [Example 39], the ID50 in the assay on muscarine M3 receptor was found to be 55.9 µg/kg; on neurokinin NK1 receptor it was 38.8 µg/kg; at neurokinin NK2 receptor it was 33.6 µg/kg.
